Blank lines part the entries; values can stand above or below the compound they belong to.
Legend:
Assay type in all cases: physicochemical
[1] = Dynamic vapor sorption (DVS)
Method: DVS samples are analyzed using a TA Instruments Q5000SA gravimetric water sorption analyzer. The relative humidity is adjusted between about 0-95% and the weight of the sample is continuously monitored and recorded with respect to the relative humidity and time.

[2] = Stability on prolonged drying under vacuum; conditions: about 2 days under vacuum at about 70° C.
Method: Form A of the DMF solvate of relugolix is stable, i.e., it is unchanged after prolonged drying (e.g., about 2 days) under vacuum at about 70° C.

[3] = Stability under high humidity at ambient temperatures; conditions: about 97% humidity, over a month

stability at various humidity levels ([1]; evidenced by XRPD after DVS): remains stable | DVS weight loss ([1]; relative humidity levels between about 0 to about 95%): about 7%
SMILES: CONC(=O)Nc1ccc(-c2sc3c(c2CN(C)C)c(=O)n(-c2ccc(OC)nn2)c(=O)n3Cc2c(F)cccc2F)cc1 [Form B of anhydrous relugolix, 1-[4-[1-[(2,6-difluorophenyl)-methyl]-5-[(dimethylamino)methyl]-3-(6-methoxypyridazin-3-yl)-2,4-dioxothieno-[2,3-d]pyrimidin-6-yl]phenyl]-3-methoxyurea]

DVS weight % change ([1]; relative humidity (RH) levels between 0 to 90%): about 6%
SMILES: CONC(=O)Nc1ccc(-c2sc3c(c2CN(C)C)c(=O)n(-c2ccc(OC)nn2)c(=O)n3Cc2c(F)cccc2F)cc1 [Form T of anhydrous relugolix, 1-[4-[1-[(2,6-difluorophenyl)-methyl]-5-[(dimethylamino)methyl]-3-(6-methoxypyridazin-3-yl)-2,4-dioxothieno-[2,3-d]pyrimidin-6-yl]phenyl]-3-methoxyurea]

stability after prolonged drying [2]: unchanged | DVS loss of mass ([1]; at about 90% RH): about 1% | stability under humidity [3]: remains unchanged
SMILES: CONC(=O)Nc1ccc(-c2sc3c(c2CN(C)C)c(=O)n(-c2ccc(OC)nn2)c(=O)n3Cc2c(F)cccc2F)cc1 [Form A of the DMF solvate of relugolix, 1-[4-[1-[(2,6-difluorophenyl)-methyl]-5-[(dimethylamino)methyl]-3-(6-methoxypyridazin-3-yl)-2,4-dioxothieno-[2,3-d]pyrimidin-6-yl]phenyl]-3-methoxyurea]
